Test system: B16F0 melanoma tumour
Assay: Biodistribution in B16 melanoma bearing mice
Assay type: in vivo, C57BL/6J mice
Conditions: B16 melanoma bearing mice
Experimental: Animal experiments were performed in compliance with the NHMRC Australian Code of Practice for the care and use of animals for scientific purposes. Female C57BL/6J black and BALB/c nude albino mice of 5 weeks age were obtained from the Animal Resources Centre, Western Australia. B16F0 murine melanoma cells were originally obtained from European Collection of Cell Cultures (UK) and A375 human amelanotic melanoma cells were originally obtained from American Type Culture Collection (USA). Before transplantation, B16F0 and A375 melanoma cells were maintained as a monolayer in RPMI culture medium supplemented with 10% foetal calf serum and antibiotics and passaged with trypsinisation. Early passages were frozen and stored in liquid nitrogen. Cells were passaged to P=10 and then discarded. Frozen aliquots were grown in a monolayer culture to between 80-95% confluence and for transplantation were trypsinised and washed with Ca^2+ and Mg^2+ free phosphate buffered saline (PBS). For inoculation, B16F0 melanoma cells were resuspended in Ca^2+ and Mg^2+ free PBS at 3 or 5×10^6 viable cells per ml and 0.1 ml was subcutaneously injected at the left flank of 6-7 weeks old C57BL/6J mice. Eleven days later, tumours could be palpated in >98% of inoculated animals. A375 human melanoma cells were resuspended at 1×10^7 viablecells per ml and 0.1 ml was injected subcutaneously at the left flank of 6 weeks old BALB/c nude mice and 25-26 days later tumours could be palpated with ˜60% of inoculated animals developing tumours.
Eleven days (B16F0 melanoma) and 25 days (A375 human melanoma) after tumour transplantation, the [^18F]nicotinamides (0.5-1.5 MBq, 100 μl) and [^123I]nicotinamide (0.37-0.74 MBq, 100 μl) derivatives were injected intravenously via the tail vein into mice (15-18 g). Time points of 1, 3, 6, 24, 48, 72 h after injection were chosen for determining the distribution of each compound in various organs and tissues for the iodine-123 labelled compounds and between 15 min and 6 hours (e.g. 15 min, 30 min, 1 h, 2 h, 4 h or 6 h) were chosen for the ^18F-labelled compounds. At defined times post injection, groups of mice (n=5) were weighed, sacrificed by CO2 administration followed by cervical dislocation and dissected. Selected organs were weighed and their radioactivity measured with a γ-counter. The remaining activity in the carcass was also determined in order to obtain the total activity in the mouse at defined time points. The fraction of injected activity (% ID) in the organ was calculated by comparison with suitable dilutions of the injected dose. Then, the radioactivity concentration in the organ (% ID/g) was found by dividing the % ID for each organ by the weight of the organ.

CCCCN(C)CCCCNC(=O)c1ccc(F)nc1 [[^18F]MEL4, 6-Fluoro-N-[4-(butyl(methyl)amino)butyl]nicotinamide]
uptake BLOOD (15 min): 0.68 % ID/g
uptake BONE (15 min): 3.89 % ID/g
uptake BRAIN (15 min): 0.84 % ID/g
uptake EYES (15 min): 11.27 % ID/g
uptake GIT (15 min): 8.23 % ID/g
uptake HEART (15 min): 2.49 % ID/g
uptake KIDNEY (15 min): 15.88 % ID/g
uptake LIVER (15 min): 30.69 % ID/g
uptake LUNGS (15 min): 12.06 % ID/g
uptake MUSCLE (15 min): 2.83 % ID/g
uptake SKIN (15 min): 2.53 % ID/g
uptake SPLEEN (15 min): 11.19 % ID/g
uptake STOMACH (15 min): 8.52 % ID/g
uptake THYROID (15 min): 10.16 % ID/g
uptake TUMOUR (15 min): 4.01 % ID/g
uptake BLOOD (1 h): 0.32 % ID/g
uptake BONE (1 h): 2.03 % ID/g
uptake BRAIN (1 h): 0.75 % ID/g
uptake EYES (1 h): 12.65 % ID/g
uptake GIT (1 h): 5.78 % ID/g
uptake HEART (1 h): 0.98 % ID/g
uptake KIDNEY (1 h): 4.64 % ID/g
uptake LIVER (1 h): 36.76 % ID/g
uptake LUNGS (1 h): 4.49 % ID/g
uptake MUSCLE (1 h): 1.00 % ID/g
uptake SKIN (1 h): 1.61 % ID/g
uptake SPLEEN (1 h): 7.38 % ID/g
uptake STOMACH (1 h): 3.31 % ID/g
uptake THYROID (1 h): 5.37 % ID/g
uptake TUMOUR (1 h): 4.79 % ID/g
uptake BLOOD (3 h): 0.21 % ID/g
uptake BONE (3 h): 1.41 % ID/g
uptake BRAIN (3 h): 0.57 % ID/g
uptake EYES (3 h): 14.28 % ID/g
uptake GIT (3 h): 4.18 % ID/g
uptake HEART (3 h): 0.71 % ID/g
uptake KIDNEY (3 h): 2.89 % ID/g
uptake LIVER (3 h): 32.81 % ID/g
uptake LUNGS (3 h): 3.08 % ID/g
uptake MUSCLE (3 h): 0.53 % ID/g
uptake SKIN (3 h): 1.09 % ID/g
uptake SPLEEN (3 h): 5.31 % ID/g
uptake STOMACH (3 h): 2.36 % ID/g
uptake THYROID (3 h): 2.92 % ID/g
uptake TUMOUR (3 h): 5.31 % ID/g
uptake BLOOD (6 h): 0.14 % ID/g
uptake BONE (6 h): 1.03 % ID/g
uptake BRAIN (6 h): 0.37 % ID/g
uptake EYES (6 h): 15.75 % ID/g
uptake GIT (6 h): 3.08 % ID/g
uptake HEART (6 h): 0.52 % ID/g
uptake KIDNEY (6 h): 1.80 % ID/g
uptake LIVER (6 h): 26.41 % ID/g
uptake LUNGS (6 h): 2.23 % ID/g
uptake MUSCLE (6 h): 0.36 % ID/g
uptake SKIN (6 h): 0.89 % ID/g
uptake SPLEEN (6 h): 4.11 % ID/g
uptake STOMACH (6 h): 1.79 % ID/g
uptake THYROID (6 h): 1.98 % ID/g
uptake TUMOUR (6 h): 5.29 % ID/g
